We go through one compound from ChEMBL document CHEMBL1151469, “Cytotoxic activity of N-chlorotaurine on Acanthamoeba spp” (Antimicrob Agents Chemother, 2008).

Calls of active or inactive are those of the source. The calls are words filed in the database; no cut-off is given here.

One experiment relates to Acanthamoeba hatchetti. Kind of experiment: Amoebicidal activity against excysted trophozoites of Acanthamoeba hatchetti 11DS at 55 mM in peptone yeast extract glucose medium after 4 days by hemocytometer using trypan blue stain. The experiment is classed as functional.
In another experiment the test system is Acanthamoeba polyphaga. Kind of experiment: Amoebicidal activity against Trophozoites of Acanthamoeba polyphaga 5SU assessed as log reduction in cell count at 10 mM in phosphate buffered saline at pH 7 after 6 hrs by hemocytometer using trypan blue staining. In kind it is functional, organism-based.

Compound `O=S(=O)(O)CCNCl` returned an Activity in the experiment on Acanthamoeba hatchetti of 100000. In the experiment with Acanthamoeba polyphaga, the result was Active.
